Experimental data from patent EP0072027A1, “Antiviral compounds” (THE WELLCOME FOUNDATION LIMITED, priority 1981, dated 1983).
Converted amounts (≈) assume the structure as drawn.

What was measured:
[1] = target: adenosine deaminase (Homo sapiens, UniProt P00813); conditions: Tetrahedron Letters, 21, 1980, 327-330; cited from earlier work
[2] = test system: herpes simplex virus type 1; experiment: Comparative in vivo activity against herpetic encephalitis in mice (Example 18); set-up: species or system CD.1 mice; conditions: for Mean reciprocal survival time: 100 mg/kg/dose twice daily for 4½ days, 300 LD50
Method: CD.1 mice weighing 16 - 20 gm were obtained from Charles River, Manston, Kent, U.K. The animals were housed in groups of approximately 10 and were given food and water ad lib.
The compounds namely acyclovir, 134U, 759U and 457U, were prepared as suspensions or solutions in sterile water at a concentration of 20 mg/ml prior to each experiment, and were stored at 4°C during the dosing period.
The ICI strain of herpes simplex virus type 1 was used for all experiments at a concentration of 300 LD50 (10^5 pfu)/ml). Dilutions from virus stocks ([…]) were prepared in PBS 'A'.
The test procedure is analoguous to that described in Example 13.
Three experiments were performed, in which three routes of compound administration were examined: i) subcutaneous, ii) oral and iii) intraperitoneal. […]

[3] = Solubility in water; format: physicochemical
Excerpt: As mentioned above, the compounds of formula (I) have the important advantage of having a greater solubility in water than acyclovir. Thus, the compounds of formula (I) wherein X is an oxygen atom and R is a hydroxy group or amino group have solubilities of 0.4 -.0.5% and 2 - 3% w/w respectively compared with a figure of 0.14% w/w for acyclovir.

[4] = test system: EHV-1 Pneumabort vaccine strain; experiment: Comparative in vivo activity against equine rhinopneumonitis virus in hamsters, medicated drinking water (Example 15); set-up: species or system Syrian hamsters; conditions: for Cumulative mortality (out of 15) on day: water conc. 0.075 mg/ml, average intake 6.6-6.8 mg/kg/day
Method: 50 male WO/CR Syrian hamsters were caged randomly in 10 groups of 5, with water and food (seed mix) ad lib. Hamsters were weighed on Days -3, 0, 4, and/or- at death/sacrifice. Water consumption was recorded over Days -3 to 0 to 4.
EHV-1 Pneumabort vaccine strain stored as a 10^-1 dilution, was further diluted 10^-1 in PBS for infection. On Day 0, hamsters in Groups 1-9 received 0.2 ml virus inoculum s/c in the left flank equivalent to about 2 x 10^5 PFU (plaque-forming units).
457U and 759U were dissolved in drinking water at 0.075 mg/ml. Assuming an average daily intake of […], this would result in a daily dose of around 10 mg/kg. Medicated water was provided from approximately 5 hours pre-infection for 96 hours, as below
The drug intake was calculated from the weight of the animals and the water consumption recorded over the period of the experiment.

Chain of adenosine deaminase (P00813 whole entry): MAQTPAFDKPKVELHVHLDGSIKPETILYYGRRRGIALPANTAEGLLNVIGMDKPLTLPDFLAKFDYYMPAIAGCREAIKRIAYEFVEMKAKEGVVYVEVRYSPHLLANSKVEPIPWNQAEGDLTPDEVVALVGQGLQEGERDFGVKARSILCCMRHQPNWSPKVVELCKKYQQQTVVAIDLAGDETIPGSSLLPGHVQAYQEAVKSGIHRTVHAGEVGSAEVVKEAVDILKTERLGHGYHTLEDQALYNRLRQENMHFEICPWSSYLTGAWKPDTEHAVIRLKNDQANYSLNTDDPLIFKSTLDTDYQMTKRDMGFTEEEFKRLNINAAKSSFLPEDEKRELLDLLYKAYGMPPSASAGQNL

Row | Compound | competitive inhibition of the enzyme [1] | substrate for the enzyme [1] | Mean reciprocal survival time ([2]; Oral) | Mean reciprocal survival time ([2]; i.p.) | Mean reciprocal survival time ([2]; s.c.) | solubility [3] [mg/mL] | deaths from virus-induced hepatitis ([4]; in 15 treated hamsters, 14 deaths in 15 untreated controls) | prevention of EHV-1 induced mortality ([4]; orally in drinking water, approximately 7 mg/kg/day) | Cumulative mortality (out of 15) on day ([4]; day 2) | Cumulative mortality (out of 15) on day ([4]; day 3) | Cumulative mortality (out of 15) on day ([4]; day 4+) | antiviral effect compared with acyclovir and 134U ([2]; any of the three routes, difference highly significant)
1 | Nc1ncnc2c1ncn2COC(CO)CO | weak competitive inhibitor | poor substrate |  |  |  |  |  |  |  |  |  | 
2 | Nc1nc(N)c2ncn(COCCO)c2n1 [Example 134U, 2-amino-9-(2-hydroxy-methoxymethyl) adenine, reference compound] |  |  | 0.222 | 0.231 | 0.226 |  |  |  |  |  |  | 
3 | Nc1nc(N)c2ncn(COC(CO)CO)c2n1 [Example 457U, 9-[(2-hydroxy-1-hydroxymethylethoxy)methyl]-2,6-diaminopurine] |  |  | 0.155 | 0.077 | 0.102 | 20 to 30 (≈ 78.7 to 118 mM) | 1 | almost completely prevented | 0 | 1 | 1 | greatest antiviral effect
